Where two headings read alike, the source gives them in different places.
Experiments:
[1] = biological target: T1, β5 subunit of the human immunoproteasome (IPS) (Homo sapiens, UniProt P28062); experiment: β5 inhibition assay, human immunoproteasome (Suc-LLVY-AMC); assay type: biochemical; conditions: IC50 class, Suc-LLVY-AMC substrate
T1 construct: purchased Boston Biochem E-370
In short: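 β5 activity is read as liberated AMC fluorescence (355/460 nm) after 4 h dark reaction at RT with 22.6 μM Suc-LLVY-AMC, stopped by 1 μM bortezomib. Beforehand, 1 nM human IPS and compound sat 10 min at RT in HEPES pH 7.5 buffer containing NaCl, 0.02% SDS and DTT.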

[2] = system: A549 (human lung carcinoma cell line); experiment: Glo assay of A549 cells (Table 3; ProteasomeGlo plating scheme); assay type: cell-based
In short: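 After acoustic compound transfer, plates incubate 105 min (37° C., 5% CO2). Proteasome-Glo reagent containing Suc-LLVY-Glo substrate is added, plates are shaken, then luminescence is measured after 10-15 min to derive IC50 [nM]. Staurosporine and DMSO serve as controls.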

[3] = system: HT-29 cells; experiment: CellTiter-Glo luminescent cell viability assay with HT-29 cells (72h incubation); assay type: cell-based, human; conditions: read-out: CTG HT29
In short: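 Viability read as CellTiter-Glo luminescence after 72 h compound exposure, with 10 μM staurosporine and DMSO as control wells. Seeding 400 cells per well, compound added 24 h post-plating; IC50 from curve fitting.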

[4] = Homo sapiens, A549 cells, read-out: PGLo A549
[5] = Homo sapiens, HT-29, HT29 cells

Structure (SMILES)	IC50 [1] [µM]	IC50 [2, 4] [nM]	IC50 [3, 5] [µM]	IC50 ([2]; A549 cells, read-out: PGLo A549) [nM]	IC50 ([3]; HT29 cells) [µM]	IC50 ([2]; Homo sapiens, A549, read-out: PGLo A549 [nM]) [nM]
Cc1ccc2cc1CNC(=O)[C@H](CCc1ccccc1)NC(=O)[C@@H](NC(=O)OCc1ccccc1)CC(=O)N1CCCC(CCO2)C1 (stereo partly drawn) [Compound 7, benzyl ((9S,12S)-5^4-methyl-8,11,14-trioxo-9-phenethyl-4-oxa-7,10-diaza-1(3,1)-piperidina-5(1,3)-benzenacyclotetradecaphane-12-yl)carbamate]	< 0.1	< 100	< 0.1	–	–	–
Cc1ccc2cc1CNC(=O)[C@H](CCc1ccccc1)NC(=O)[C@@H](NC(=O)C(C)(C)C)CC(=O)N1CCCC(CCO2)C1 (stereo partly drawn) [Compound 27, N-((9S,12S)-5^4-methyl-8,11,14-trioxo-9-phenethyl-4-oxa-7,10-diaza-1(3,1)-piperidina-5(1,3)-benzenacyclotetradecaphane-12-yl)pivalamide]	< 0.1	< 100	< 0.1	–	–	–
Cc1ccc2cc1CNC(=O)[C@H](CCc1ccccc1)NC(=O)[C@@H](NC(=O)CC(C)(C)C)CC(=O)N1CCCC(CCO2)C1 (stereo partly drawn) [Compound 28, 3,3-dimethyl-N-((9S,12S)-5^4-methyl-8,11,14-trioxo-9-phenethyl-4-oxa-7,10-diaza-1(3,1)-piperidina-5(1,3)-benzenacyclotetradecaphane-12-yl)butanamide]	< 0.1	< 100	< 0.1	–	–	–
Cc1ccc2cc1CNC(=O)[C@H](CCc1ccccc1)NC(=O)[C@@H](NC(=O)Cc1ccccc1)CC(=O)N1CCCC(CCO2)C1 (stereo partly drawn) [Compound 29, N-((9S,12S)-5^4-methyl-8,11,14-trioxo-9-phenethyl-4-oxa-7,10-diaza-1(3,1)-piperidina-5(1,3)-benzenacyclotetradecaphane-12-yl)-2-phenylacetamide]	< 0.1	< 100	< 0.1	–	–	–
Cc1ccc2cc1CNC(=O)C(CCc1ccccc1)NC(=O)C(NC(=O)CCc1ccccc1)CC(=O)N1CCCC(CCO2)C1 [Compound 30, N-((9S,12S)-5^4-methyl-8,11,14-trioxo-9-phenethyl-4-oxa-7,10-diaza-1(3,1)-piperidina-5(1,3)-benzenacyclotetradecaphane-12-yl)-3-phenylpropanamide]	< 0.1	–	–	< 100	< 0.1	–
Cc1ccc2cc1CNC(=O)[C@H](CCc1ccccc1)NC(=O)[C@@H](NC(=O)c1nc3ccccc3[nH]1)CC(=O)N1CCCC(CCO2)C1 (stereo partly drawn) [Compound 31, N-((9S,12S)-5^4-methyl-8,11,14-trioxo-9-phenethyl-4-oxa-7,10-diaza-1(3,1)-piperidina-5(1,3)-benzenacyclotetradecaphane-12-yl)-1H-benzo[d] imidazole-2-carboxamide]	< 0.1	< 100	< 0.1	–	–	–
Cc1ccc2cc1CNC(=O)[C@H](CCc1ccccc1)NC(=O)[C@@H](NC(=O)c1ncccn1)CC(=O)N1CCCC(CCO2)C1 (stereo partly drawn) [Compound 32, N-((9S,12S)-5^4-methyl-8,11,14-trioxo-9-phenethyl-4-oxa-7,10-diaza-1(3,1)-piperidina-5(1,3)-benzenacyclotetradecaphane-12-yl)pyrimidine-2-carboxamide]	< 0.1	< 100	< 0.1	–	–	–
CC(=O)N[C@H]1CC(=O)N2CCCC(CCOc3ccc(C)c(c3)CNC(=O)[C@H](CCc3ccccc3)NC1=O)C2 (stereo partly drawn) [Compound 33, N-((9S,12S)-5^4-methyl-8,11,14-trioxo-9-phenethyl-4-oxa-7,10-diaza-1(3,1)-piperidina-5(1,3)-benzenacyclotetradecaphane-12-yl)acetamide]	< 0.1	< 100	< 0.1	–	–	–
Cc1ccc2cc1CNC(=O)[C@H](CCc1ccccc1)NC(=O)[C@@H](Nc1ncccn1)CC(=O)N1CCCC(CCO2)C1 (stereo partly drawn) [Compound 34, (9S,12S)-5^4-methyl-9-phenethyl-12-(pyrimidin-2-ylamino)-4-oxa-7,10-diaza-1(3,1)]	< 0.1	–	< 0.1	–	–	< 100
Cc1ccc2cc1CNC(=O)[C@H](CCc1ccccc1)NC(=O)[C@@H](NC1COC1)CC(=O)N1CCCC(CCO2)C1 (stereo partly drawn) [Compound 35, (9S,12S)-5^4-methyl-12-(oxetan-3-ylamino)-9-phenethyl-4-oxa-7,10-diaza-1(3,1)-piperidina-5(1,3)-benzenacyclotetradecaphane-8,11,14-trione]	< 0.1	100 to 500	0.1 to 0.5	–	–	–
Cc1ccc2cc1CNC(=O)[C@H](CCc1ccccc1)NC(=O)[C@@H](NC(=O)OCc1ccccc1)CCCC(=O)N1CCCC3(CC(C3)O2)C1 [Compound 283, benzyl ((7S,10S)-34-methyl-6,9,14-trioxo-7-phenethyl-2-oxa-5,8-diaza-15(3,1)-piperidina-3(1,3)-benzena-1(1,3)-cyclobutanapentadecaphane-10-yl)carbamate]	< 0.1	1000 to 5000	0.1 to 0.5	–	–	–
CC(=O)N[C@H]1CCCC(=O)N(C)CCCCOc2ccc(C)c(c2)CNC(=O)[C@H](CCc2ccccc2)NC1=O [Compound 295, N-(1^4,7-dimethyl-8,13,16-trioxo-15-phenethyl-2-oxa-7,14,17-triaza-1(1,3)-benzenacyclooctadecaphane-12-yl)acetamide]	< 0.1	100 to 500	< 0.1	–	–	–
CC(=O)N[C@H]1CC(=O)N(C)CCCCOc2ccc(C)c(c2)CNC(=O)[C@H](CCc2ccccc2)NC1=O [Compound 296, N-(1^4,7-dimethyl-8,11,14-trioxo-13-phenethyl-2-oxa-7,12,15-triaza-1(1,3)-benzenacyclohexadecaphane-10-yl)acetamide]	0.1 to 0.5	500 to 1000	0.1 to 0.5	–	–	–
CC(=O)N[C@H]1CCC(=O)N2CC3CC(Oc4ccc(C)c(c4)CNC(=O)[C@H](CCc4ccccc4)NC1=O)C3C2 (some centres unmarked) [Compound 299, N-(3^4-methyl-6,9,13-trioxo-7-phenethyl-2-oxa-13,5,8-triaza-1(6,3)-bicyclo[3.2.0]heptana-3(1,3)-benzenacyclotridecaphane-10-yl)acetamide]	0.5 to 1	> 5000	0.1 to 0.5	–	–	–
Cc1ccc2cc1CNC(=O)[C@H](CCc1ccccc1)NC(=O)[C@@H](NC(=O)OCc1ccccc1)CC(=O)N1CCCC3(CC(C3)O2)C1 [Compound 300]	< 0.1	1000 to 5000	0.1 to 0.5	–	–	–
Cc1ccc2cc1CNC(=O)[C@H](CCc1ccccc1)NC(=O)[C@@H](NC(=O)OCc1ccccc1)CCC(=O)N1CCCC3(CC(C3)O2)C1 [Compound 301, benzyl ((7S,10S)-3^4-methyl-6,9,13-trioxo-7-phenethyl-2-oxa-5,8-diaza-14(3,1)-piperidina-3(1,3)-benzena-1(1,3)-cyclobutanatetradecaphane-10-yl)carbamate]	0.5 to 1	1000 to 5000	0.1 to 0.5	–	–	–
Cc1ccc2cc1CNC(=O)[C@H](CCc1ccccc1)NC(=O)[C@@H](NC(=O)Cc1ccccc1C)CC(=O)N1CCCC(CCO2)C1 (stereo partly drawn) [Compound 373, N-((9S,12S)-5^4-methyl-8,11,14-trioxo-9-phenethyl-4-oxa-7,10-diaza-1(3,1)-piperidina-5(1,3)-benzenacyclotetradecaphane-12-yl)-2-(o-tolyl)acetamide]	< 0.1	< 100	–	–	–	–

From patent publication US20240415819A1, “MACROCYCLIC COMPOUNDS AS PROTEASOME SUBUNIT BETA TYPE-5 INHIBITORS” (Lead Discovery Center GmbH, priority 2021, published 2024)
